Assay results: PubChem BioAssay AID248 (DTP/NCI, 2004)
Inconclusive results and toxic doses are left out. Rule as the data show it: active = T/C of 150% or more; inactive = T/C below 125%.

System: L1210 leukemia ip in BDF1 mice, survival T/C
Test: NCI In Vivo Anticancer Drug Screen. Data for tumor model L1210 Leukemia (intraperitoneal) in B6D2F1 (BDF1) mice
Details: endpoint: mean survival time, higher = longer survival
Summary of the method: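 Tumor cells were implanted, animals were treated, and survival was followed. The result divides the treated measurement by the vehicle-control measurement.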

[1] = dose: 100.0 mg/kg/injection, schedule: Q01DX001 (ip), vehicle: saline
[2] = dose: 200.0 mg/kg/injection, schedule: Q01DX001 (ip), vehicle: saline
[3] = dose: 400.0 mg/kg/injection, schedule: Q01DX001 (ip), vehicle: saline
[4] = dose: 100.0 mg/kg/injection, schedule: Q01DX009 (ip), vehicle: Klucel (hydroxypropylcellulose) (HPC)
[5] = dose: 200.0 mg/kg/injection, schedule: Q01DX009 (ip), vehicle: Klucel (hydroxypropylcellulose) (HPC)
[6] = dose: 400.0 mg/kg/injection, schedule: Q01DX009 (ip), vehicle: Klucel (hydroxypropylcellulose) (HPC)
[7] = dose: 100.0 mg/kg/injection, schedule: Q04DX002 (ip), vehicle: Klucel (hydroxypropylcellulose) (HPC)
[8] = dose: 200.0 mg/kg/injection, schedule: Q04DX002 (ip), vehicle: Klucel (hydroxypropylcellulose) (HPC)
[9] = dose: 400.0 mg/kg/injection, schedule: Q04DX002 (ip), vehicle: Klucel (hydroxypropylcellulose) (HPC)
[10] = dose: 100.0 mg/kg/injection, schedule: Q04DX003 (ip), vehicle: saline
[11] = dose: 200.0 mg/kg/injection, schedule: Q04DX003 (ip), vehicle: saline
[12] = dose: 400.0 mg/kg/injection, schedule: Q04DX003 (ip), vehicle: saline
[13] = dose: 75.0 mg/kg/injection, schedule: Q01DX001 (ip), vehicle: saline
[14] = dose: 150.0 mg/kg/injection, schedule: Q01DX001 (ip), vehicle: saline

Measured: T/C

COC1(OC)CCC=C(CNc2ncnc3nc[nH]c23)C1
inactive: dose: 100.0 mg/kg/injection, schedule: Q01DX001 (ip), vehicle: saline with Tween-80 102 % of control | dose: 200.0 mg/kg/injection, schedule: Q01DX001 (ip), vehicle: saline with Tween-80 94 % of control | dose: 400.0 mg/kg/injection, schedule: Q01DX001 (ip), vehicle: saline with Tween-80 100 % of control

CN(C)c1ccc(C=C(Cl)Cl)cc1
inactive: dose: 50.0 mg/kg/injection, schedule: Q01DX005 (ip), vehicle: other 108 % of control | dose: 50.0 mg/kg/injection, schedule: Q01DX009 (ip), vehicle: other 96 % of control | dose: 100.0 mg/kg/injection, schedule: Q01DX005 (ip), vehicle: other 108 % of control | dose: 100.0 mg/kg/injection, schedule: Q01DX009 (ip), vehicle: other 107 % of control | dose: 200.0 mg/kg/injection, schedule: Q01DX005 (ip), vehicle: other 112 % of control | dose: 200.0 mg/kg/injection, schedule: Q01DX009 (ip), vehicle: other 100 % of control

CC1CN(c2ccccc2)CN1c1ccccc1 (centres undefined)
inactive: dose: 100.0 mg/kg/injection, schedule: Q04DX002 (sc), vehicle: olive oil, sesame oil, peanut oil 94 % of control | dose: 200.0 mg/kg/injection, schedule: Q04DX002 (sc), vehicle: olive oil, sesame oil, peanut oil 91 % of control | dose: 400.0 mg/kg/injection, schedule: Q04DX002 (sc), vehicle: olive oil, sesame oil, peanut oil 102 % of control

Cc1coc2c1CC1(C)C(CCC(O)C1C)C2 (centres undefined)
inactive: [1] 97 % of control | [2] 100 % of control | [3] 103 % of control

COc1cc(CC(=O)C2CN(C(=O)Cc3cc(Cl)c(OC)c(OC)c3)c3ccc(Br)cc32)cc(Cl)c1OC (centres undefined)
inactive: dose: 50.0 mg/kg/injection, schedule: Q01DX001 (ip), vehicle: saline 96 % of control | [1] 96 % of control | [2] 90 % of control | [3] 93 % of control

COC(c1ccccc1)C(Br)C(=O)c1ccccc1 (centres undefined)
inactive: dose: 100.0 mg/kg/injection, schedule: Q04DX003 (ip), vehicle: acetone 96 % of control | dose: 200.0 mg/kg/injection, schedule: Q04DX003 (ip), vehicle: acetone 101 % of control | dose: 400.0 mg/kg/injection, schedule: Q04DX003 (ip), vehicle: acetone 95 % of control

CC(C(OC(=O)Nc1ccc(Cl)c(Cl)c1)c1ccc(F)cc1)C(O)(C(F)(F)F)C(F)(F)F (centres undefined)
inactive: [4] 93 % of control | [5] 93 % of control | [6] 91 % of control

O=[N+]([O-])c1cccc2c1/C(=N/O)c1ccccc1-2
inactive: dose: 100.0 mg/kg/injection, schedule: Q01DX001 (ip), vehicle: carboxymethylcellulose (CMC) 101 % of control | dose: 200.0 mg/kg/injection, schedule: Q01DX001 (ip), vehicle: carboxymethylcellulose (CMC) 92 % of control | dose: 400.0 mg/kg/injection, schedule: Q01DX001 (ip), vehicle: carboxymethylcellulose (CMC) 98 % of control

CCC(C)NP(=O)(OC1CC(C)(C)N(O)C(C)(C)C1)OC1CC(C)(C)N(O)C(C)(C)C1 (centres undefined)
inactive: dose: 50.0 mg/kg/injection, schedule: Q01DX001 (ip), vehicle: water 98 % of control | dose: 100.0 mg/kg/injection, schedule: Q01DX001 (ip), vehicle: water 98 % of control | dose: 200.0 mg/kg/injection, schedule: Q01DX001 (ip), vehicle: water 94 % of control

Cc1ccc(C(=O)OCc2ccccc2CN(C)C)cc1
inactive: [7] 94 % of control | [8] 94 % of control | [9] 102 % of control

O=C1C(Cl)(Cl)CCCC1(Cl)Cl
inactive: dose: 50.0 mg/kg/injection, schedule: Q01DX009 (ip), vehicle: saline with Tween-80 98 % of control | dose: 100.0 mg/kg/injection, schedule: Q01DX009 (ip), vehicle: saline with Tween-80 105 % of control | dose: 200.0 mg/kg/injection, schedule: Q01DX009 (ip), vehicle: saline with Tween-80 110 % of control

OCC(Cc1ccccc1)N1CCCCC1 (centres undefined)
inactive: dose: 5.0 mg/kg/injection, schedule: Q01DX001 (ip), vehicle: saline 109 % of control | dose: 10.0 mg/kg/injection, schedule: Q01DX001 (ip), vehicle: saline 96 % of control | dose: 20.0 mg/kg/injection, schedule: Q01DX001 (ip), vehicle: saline 96 % of control | dose: 40.0 mg/kg/injection, schedule: Q01DX001 (ip), vehicle: saline 96 % of control | dose: 80.0 mg/kg/injection, schedule: Q01DX001 (ip), vehicle: saline 96 % of control

CC1(C(N)=O)OCCO1
inactive: [10] 103 % of control | [11] 96 % of control | [12] 100 % of control

O=C(O)COc1cc(Cl)ccn1
inactive: [7] 100 % of control | [8] 93 % of control | [9] 110 % of control

CC(C)=NNC(=O)NO
inactive: [13] 102 % of control

Cc1ccc(NC(=O)c2ccc(Cl)cc2)cc1Cl
inactive: [4] 105 % of control | dose: 100.0 mg/kg/injection, schedule: Q04DX003 (ip), vehicle: Klucel (hydroxypropylcellulose) (HPC) 94 % of control | [5] 98 % of control | dose: 200.0 mg/kg/injection, schedule: Q04DX003 (ip), vehicle: Klucel (hydroxypropylcellulose) (HPC) 94 % of control | [6] 92 % of control | dose: 400.0 mg/kg/injection, schedule: Q04DX003 (ip), vehicle: Klucel (hydroxypropylcellulose) (HPC) 104 % of control

CCCCCCCCCCCCCCCCC[CH2][Sn]([Cl])([CH2]CCCCCCCCCCCCCCCCC)[CH2]CCCCCCCCCCCCCCCCC
inactive: [7] 92 % of control | [8] 100 % of control | [9] 96 % of control

CN(C)C(=O)c1cc(C(=O)N(C)C)c[n+](Cc2c(Cl)cccc2Cl)c1
inactive: dose: 18.75 mg/kg/injection, schedule: Q01DX009 (ip), vehicle: saline 95 % of control | dose: 37.5 mg/kg/injection, schedule: Q01DX009 (ip), vehicle: saline 95 % of control | [13] 97 % of control | dose: 75.0 mg/kg/injection, schedule: Q01DX009 (ip), vehicle: saline 94 % of control | dose: 75.0 mg/kg/injection, schedule: Q04DX003 (ip), vehicle: saline 100 % of control | [14] 106 % of control | dose: 150.0 mg/kg/injection, schedule: Q04DX003 (ip), vehicle: saline 96 % of control | dose: 300.0 mg/kg/injection, schedule: Q01DX001 (ip), vehicle: saline 104 % of control

CCN=C(N)C(N)=NCC
inactive: dose: 100.0 mg/kg/injection, schedule: Q01DX009 (ip), vehicle: saline 94 % of control | [10] 103 % of control | dose: 200.0 mg/kg/injection, schedule: Q01DX009 (ip), vehicle: saline 94 % of control | [11] 100 % of control | dose: 400.0 mg/kg/injection, schedule: Q01DX009 (ip), vehicle: saline 89 % of control | [12] 97 % of control

O=C(/C=C(\c1ccccc1)c1ccc([N+](=O)[O-])cc1)Nc1ccc(S(=O)(=O)F)cc1
inactive: dose: 100.0 mg/kg/injection, schedule: Q04DX003 (ip), vehicle: saline with Tween-80 96 % of control | dose: 200.0 mg/kg/injection, schedule: Q04DX003 (ip), vehicle: saline with Tween-80 91 % of control | dose: 400.0 mg/kg/injection, schedule: Q04DX003 (ip), vehicle: saline with Tween-80 96 % of control

COc1ccc(NC(=O)Nc2ccc(S(N)(=O)=O)cc2)c(OC)c1
inactive: [4] 96 % of control | [5] 94 % of control | [6] 88 % of control

O=C(Oc1cc(Cl)c(S(=O)(=O)F)cc1Cl)c1ccc([N+](=O)[O-])cc1
inactive: [7] 99 % of control | [8] 99 % of control | [9] 92 % of control

CN1NC(=O)C2CCCC1O2 (centres undefined)
inactive: [1] 95 % of control | [2] 105 % of control | [3] 94 % of control

CC[CH2][Pb]([CH2]CC)([CH2]CC)[O]C(=O)CCl
inactive: dose: 3.0 mg/kg/injection, schedule: Q01DX009 (ip), vehicle: Klucel (hydroxypropylcellulose) (HPC) 106 % of control | dose: 6.0 mg/kg/injection, schedule: Q01DX009 (ip), vehicle: Klucel (hydroxypropylcellulose) (HPC) 101 % of control | dose: 12.5 mg/kg/injection, schedule: Q01DX009 (ip), vehicle: Klucel (hydroxypropylcellulose) (HPC) 96 % of control

FC(F)(F)S.[Ag]
inactive: [13] 95 % of control | [14] 95 % of control
